Paper PMC7382147, “An effective UFLC–MS/MS method used to study pharmacokinetics of major constituents of Fukeqianjin formula in rat plasma” (Chinese Medicine, 2020)

Columns and labels:
[1] = Freeze–thaw stability of QC samples (−20 °C, three times); assay type: physicochemical, rat; details: plasma QC, freeze (−20 °C) and thaw three times
Protocol: (§1) Aliquots of 100 μL plasma samples were mixed with 10 μL I.S. samples (1 μg/mL, in MeOH), then added with 500 μL ACN, respectively, and vortexed for 5 min, centrifugated at 10,000 rpm for 10 min, the supernatants were transferred into clean vials and dried in a vacuum centrifugal concentrator at 1200 rpm, 37 °C. After that, 100 μL ACN was added and ultrasonic (frequency 40 kHz, power 250 W) extracted for 5 min to dissolve the dry residue, vortexed for 1 min and centrifugated at 10,000 rpm for 5 min, 1 μL of each final supernatant was injected into UFLC–MS/MS for analysis.
(§2) Six replicates of low, medium and high concentrations of quality control (QC) samples were used to verify the stabilities under different conditions including: place at room temperature for 8 h, freeze (− 20 °C) and thaw for three times, and store at − 20 °C for 20 days.

[2] = Ordinary stability of QC samples (room temperature for 8 h); assay type: physicochemical, rat; details: plasma QC, room temperature 8 h
Protocol: as §1, §2

[3] = Pharmacokinetic study in rat plasma after oral administration of FKQJF extract (UFLC–MS/MS); assay type: in vivo, Sprague-Dawley (SD) rats; details: for AUC(0-inf) / AUC(0-t) / Cmax / half-life / MRT last / MRT inf / Tmax: Sprague-Dawley, oral FKQJF extract, single dose 3.2 g/kg, mean ± SD; for MRT last: read-out: MRT0→t; for MRT inf: read-out: MRT0→∞; for Tmax: read-out: Tmax
Protocol: as §1
An 8050 UFLC–MS/MS system equipped with LC-30A binary pump, a SIL-30AC autosampler, a SPD-M30A PDA detector, a CTO-20AC column oven, and a 8050 triple quadrupole mass spectrometer with an electrospray ionization source (ESI) was applied to detect and quantify FKQJF compounds in plasma samples. Data were acquired and processed with the software LabSolution (Ver. 5.6).
A Kinetex XB-C18 HPLC column (100 × 2.1 mm, 2.6 μm) linked with an equivalent guard column was used for chromatographic separation. The aqueous phase contained 0.2% formic acid was used as mobile phase A, and organic phase ACN as mobile phase B. The gradient elution method using in this program was: 3–5 min, 28–31% B; 5–7 min, 31–34% B; 7–9 min, 34–65% B; 9–10 min, 65–95% B; 10–11.5 min, 95% B. The flow rate of mobile phase, column temperature and autosampler temperature was 0.4 mL/min, 30 °C and 4 °C, respectively. The injection volume of each sample was set as 1 μL. The main MS spectrum parameters were set as follows: the flow rate of drying gas (N2) was 10.0 L/min; the atomized gas was 3.0 L/min and the heating gas flow rate was 10.0 L/min. The main temperatures of interface, desolvation and heat block was 300 °C, 250 °C and 400 °C, respectively. And, the interface and detector voltage were 3 kV and 1.8 kV.
Rats were divided into a blank group and a FKQJF administration group (6 rats for each), and fasted for 24 h. Each rat of the administration group was given FKQJF extract suspension at a single dose of 3.2 g FKQJF/kg body weight through oral administration in parallel. Blood samples (0.25 mL) were gathered from the orbital venous plexus of each rat, with FKQJF group gathered at 14 serial timepoints (6 rats for each) as 0.083 h, 0.16 h, 0.33 h, 0.5 h, 0.75 h, 1.0 h, 1.5 h, 2 h, 3 h, 4 h, 6 h, 8 h, 12 h and 24 h after drug administration. The blood samples were centrifugated at 6000g for 10 min to isolate plasma and stored at − 20 °C for further analysis.
Data were analyzed using the Drug and Statistics (DAS) Software version 2.0 (DAS 2.0, Mathematical Pharmacology Professional Committee of China, Shanghai, China). The non-compartmental mode was applied to obtain the following PK parameters: area under the plasma concentration–time curve from time zero to the time of last quantifiable concentration (AUC0→t) and area under the plasma concentration–time curve to time infinity (AUC0→∞), the elimination half-life (t1/2), mean retention time to last sampling time (MRT0→t) and mean retention time to infinity (MRT0→∞). The maximum plasma concentration (Cmax) and the time to maximum concentration (Tmax) were observed directly from the concentration–time (C–T) curves and measured data. All data are presented as mean ± SD.

[4] = Long-term stability of QC samples (−20 °C for 20 days); assay type: physicochemical, rat; details: plasma QC
Protocol: as §1, §2

In the case of `CCC/C=C1\OC(=O)C2=C1CCC=C2` [Analyte 18, Z-ligustilide], the “Freeze–thaw stability Mean” value ([1]; spiked 20 ng/mL) is reported as 88.16%, the “Freeze–thaw stability Mean” value ([1]; spiked 200 ng/mL) is reported as 112.10% and the “Freeze–thaw stability Mean” value ([1]; spiked 400 ng/mL) is reported as 104.63%. The “Ordinary stability Mean” value ([2]; spiked 20 ng/mL) was 107.46%, the “Ordinary stability Mean” value ([2]; spiked 200 ng/mL) was 86.65% and the “Ordinary stability Mean” value ([2]; spiked 400 ng/mL) was 106.31%. The AUC(0-inf) [3] was 194 ± 27.9 ng·h/mL, the AUC(0-t) [3] was 74.7 ± 8.31 ng·h/mL and the Cmax [3] was 10.2 ± 0.58 ng/mL. For the same compound, the half-life [3] was 33.6 ± 27.1 h, the MRT last [3] was 9.85 ± 0.85 h and the MRT inf [3] was 48.2 ± 39.8 h. The Tmax [3] was 1.83 ± 0.29 h, the “shape of the plasma concentration–time curve” value ([3]; oral FKQJF extract 3.2 g/kg) was “double-peaks” and the “Long-term stability Mean” value ([4]; spiked 20 ng/mL) was 114.56%. For the same compound, the “Long-term stability Mean” value ([4]; spiked 200 ng/mL) was 86.82% and the “Long-term stability Mean” value ([4]; spiked 400 ng/mL) was 118.76%.

For `COc1cc(O)c2c(=O)cc(-c3ccccc3)oc2c1OC` [Analyte 19, 7-O-methylwogonin], the “Freeze–thaw stability Mean” value ([1]; spiked 10 ng/mL) was 103.66%, the “Freeze–thaw stability Mean” value ([1]; spiked 150 ng/mL) was 111.86% and the “Freeze–thaw stability Mean” value ([1]; spiked 300 ng/mL) was 94.97%. The “Ordinary stability Mean” value ([2]; spiked 10 ng/mL) was 96.33%, the “Ordinary stability Mean” value ([2]; spiked 150 ng/mL) was 80.66% and the “Ordinary stability Mean” value ([2]; spiked 300 ng/mL) was 96.04%. The AUC(0-inf) [3] was 252 ± 62.5 ng·h/mL, the AUC(0-t) [3] was 249 ± 65.5 ng·h/mL and the Cmax [3] was 169 ± 73.5 ng/mL. The half-life [3] was 1.1 ± 0.47 h, the MRT last [3] was 2.44 ± 0.12 h and the MRT inf [3] was 2.55 ± 0.21 h. For the same compound, the Tmax [3] was 2 h, the “Long-term stability Mean” value ([4]; spiked 10 ng/mL) was 116.14% and the “Long-term stability Mean” value ([4]; spiked 150 ng/mL) was 84.29%. The “Long-term stability Mean” value ([4]; spiked 300 ng/mL) was 85.96%.
